According to patent US6656949B1, “4-anilinofuro [3,2-c] quinoline derivatives, and preparation processes and uses of the same” (Kaohsiung Medical University, priority 2002, dated 2003):
Counter-ions that a name gives are not always drawn. Like-named read-outs stand apart in the source and are kept apart here.

Experiments:
[1] = system: PC-3 and DU-145 of prostate cancer; test: In vitro anticancer assay (NCI tumor cells screen), prostate cancer panel; assay type: cell-based, human; conditions: prostate cancer cell lines, read-out: GI50 (drug molar concentration causing 50% cell growth inhibition), Prostate Cancer
[2] = system: MCF7, MCF7/ADR-RES, MDA-MB-231/ATCC, HS 578T, MDA-MB-435, MDA-N, and T-47D of breast cancer; test: In vitro anticancer assay (NCI tumor cells screen), breast cancer panel; assay type: cell-based, human; conditions: breast cancer cell lines, read-out: GI50 (drug molar concentration causing 50% cell growth inhibition), Breast Cancer
[3] = system: IGROV1, OVCAR-3, OVCAR-4, OVCAR-5, OVCAR-8, and SK-OV-3 of ovarian cancer; test: In vitro anticancer assay (NCI tumor cells screen), ovarian cancer panel; assay type: cell-based, human; conditions: ovarian cancer cell lines, read-out: GI50 (drug molar concentration causing 50% cell growth inhibition), Ovarian Cancer
[4] = system: A549/ATCC, EKVX, HOP-62, HOP-92, NCI-H226, NCI-H23, NCI-H322M, and NCI-H522 of non-small cell lung cancer; test: In vitro anticancer assay (NCI tumor cells screen), lung cancer panel; assay type: cell-based, human; conditions: non-small cell lung cancer cell lines, read-out: GI50 (drug molar concentration causing 50% cell growth inhibition), Lung Cancer
[5] = system: CCRF-CEM, HL-60 (TB), K-562, MOLT-4, RPMI-8226, and SR of leukemia; test: In vitro anticancer assay (NCI tumor cells screen), leukemia panel; assay type: cell-based; conditions: leukemia cell lines, read-out: GI50 (drug molar concentration causing 50% cell growth inhibition), Leukemia
[6] = system: SF-268, SF-295, SF-539, SNB-19, SNB-75, and U251 of CNS cancer; test: In vitro anticancer assay (NCI tumor cells screen), CNS cancer panel; assay type: cell-based, human; conditions: CNS cancer cell lines, read-out: GI50 (drug molar concentration causing 50% cell growth inhibition), CNS Cancer
[7] = system: 60 human tumor cell lines; test: In vitro anticancer assay (NCI tumor cells screen), mean over 60 cell lines; assay type: cell-based; conditions: mean values over 60 cell lines tested
[8] = system: COLO 205, HCC-2998, HCT-116, HCT-15, HT29, KM12, and SW-620 of colon cancer; test: In vitro anticancer assay (NCI tumor cells screen), colon cancer panel; assay type: cell-based, human; conditions: colon cancer cell lines, read-out: GI50 (drug molar concentration causing 50% cell growth inhibition), Colon Cancer
[9] = system: 786-0, A498, ACHN, CAKI-1, RXF 393, SN12C, TK-10, and UO-31 of renal cancer; test: In vitro anticancer assay (NCI tumor cells screen), renal cancer panel; assay type: cell-based, human; conditions: renal cancer cell lines, read-out: GI50 (drug molar concentration causing 50% cell growth inhibition), Renal Cancer
[10] = system: LOX IMVI, MALME-3M, M14, SK-MEL-2, SK-MEL-28, SK-MEL-5, UACC-62, and UACC-257 of melanoma; test: In vitro anticancer assay (NCI tumor cells screen), melanoma panel; assay type: cell-based, human; conditions: melanoma cell lines, read-out: GI50 (drug molar concentration causing 50% cell growth inhibition), Melanoma
[11] = system: UO-31; test: In vitro anticancer assay (NCI tumor cells screen), UO-31; assay type: cell-based; conditions: Homo sapiens; renal cancer cell line UO-31; read-out: GI50 against UO-31
[12] = system: UACC-62; test: In vitro anticancer assay (NCI tumor cells screen), UACC-62; assay type: cell-based; conditions: Homo sapiens; melanoma cell line UACC-62; read-out: GI50 against UACC-62
[13] = system: UACC-257; test: In vitro anticancer assay (NCI tumor cells screen), UACC-257; assay type: cell-based; conditions: Homo sapiens; melanoma cell line UACC-257; read-out: GI50 against UACC-257

Compound	melting point	GI50 ([1]; Homo sapiens, DU-145)	GI50 [11]	GI50 ([2]; Homo sapiens)	GI50 ([3]; Homo sapiens)	GI50 ([4]; Homo sapiens)	GI50 ([5]; Homo sapiens)	GI50 [12]	GI50 [13]	GI50 ([6]; Homo sapiens)	GI50 ([7]; Homo sapiens)	GI50 ([8]; Homo sapiens)	GI50 ([9]; Homo sapiens)	GI50 ([10]; Homo sapiens)	also measured
CC(=NO)c1cccc(Nc2nc3ccccc3c3occc23)c1 (as salt: HCl) [Compound 4, 1-[3-(furo[3,2-c]quinolin-4-ylamino)phenyl]ethanone oxime]	164 °C (dec.)														
CON=C(C)c1cccc(Nc2nc3ccccc3c3occc23)c1 (as salt: HCl) [Compound 5, 1-[3-(furo[3,2-c]quinolin-4-ylamino)phenyl]ethanone O-methyloxime]	222 to 223 °C														
CC(=O)c1cccc(Nc2nc3ccccc3c3occc23)c1 [Compound 3]															GI50 [1]: 32.5 µM; GI50 [2]: 34 µM; GI50 [3]: 28.4 µM; GI50 [4]: 15.5 µM; GI50 [5]: 91.2 µM; GI50 [6]: 19.1 µM; GI50 [7]: 22.5 µM; GI50 [8]: 42.8 µM; GI50 [9]: 16.1 µM; GI50 [10]: 40.2 µM
CC(=NO)c1cccc(Nc2nc3ccccc3c3occc23)c1 [Compound 4, 1-[3-(furo[3,2-c]quinolin-4-ylamino)phenyl]ethanone oxime]		12.7 µM	0.03 µM	12 µM	14.5 µM	8.98 µM	9.26 µM	< 0.01 µM	< 0.01 µM	14.8 µM	7.8 µM	10.3 µM	10.3 µM	9.82 µM	
CON=C(C)c1cccc(Nc2nc3ccccc3c3occc23)c1 [Compound 5, 1-[3-(furo[3,2-c]quinolin-4-ylamino)phenyl]ethanone O-methyloxime]		15.2 µM	< 0.01 µM	13.1 µM	15.2 µM	10.8 µM	15.4 µM	< 0.01 µM	0.042 µM	14.8 µM	8.78 µM	10.3 µM	10.1 µM	11 µM	
